Test results reported in US10668034B2, “Pharmaceutical compositions and the treatment of overactive bladder” (Velicept Therapeutics, Inc., priority 2010, dated 2020).
Like-named read-outs stand apart in the source and are kept apart here.

Experiments:
[1] = tested on: isolated rat urinary bladder strips; test: EFS-induced contractions of rat isolated urinary bladder strips, beta-3 agonist with or without 10 nM antimuscarinic (Example 3); format: cell-based
Description: In this study various combinations of β3-adrenoceptor agonists and antimuscarinics were tested in isolated rat urinary bladder strips. Urinary bladder smooth muscle strips were obtained from female rats (Sprague-Dawley strain, body weight 240-360 g). Two strips per bladder were prepared and connected to tension transducers in 5 ml organ baths containing Krebs-Henseleit solution (kept at 37° C., pH 7.4, gassed with 95% O2/5% CO2). Prazosin (1 μM) was added to the Krebs solution in order to block al-adrenoceptors. Strips were equilibrated for at least 60 min at 1.0 g resting tension, during which tissues were washed every 15 min. Then, each strip was exposed to 80 mM KCl to verify its viability. After another 45 min wash-out period, strips were subjected to EFS (electrical field stimulation parameters: constant current 800 mA; frequency of 15 Hz; square pulse of 0.1 ms, train of 4 s every 2 min). […] Cumulative concentrations of solabegron (10 nM-10 μM), mirabegron (10 nM-10 μM) and CL-316,243 (1 nM-10 μM) were then added in half-log increments. At the end of CRC's, 10 μM forskolin (FSK) was added to determine maximal relaxation (FIG. 1). […] Each CRC was fit using non-linear regression (GraphPad Prism® software) to obtain Emax and pIC50 (−log IC50) values. Mean CRCs for vehicle and treated strips were fit in parallel and statistically compared. The first fit was used to compare Emax values and when these values were not statistically different, a second fit was performed, sharing Emax, in order to obtain pIC50 values for each pair of curves. Differences were considered statistically significant when the null hypothesis could be rejected at a risk a of less than 0.05.

[2] = Drug interaction study, post void residual (PVR) volume by bladder ultrasound; format: in vivo, human
Description: A drug interaction study was conducted in healthy human volunteers, using repeat oral doses of solabegron and oxybutynin administered singly as well as in combination with each other, in order to assess the effects on pharmacokinetic and pharmacodynamic parameters, as measured by post void residual (PVR) volumes. PVR was measured in subjects treated with each agent alone as well as in combination at steady-state. The study was a two-cohort randomized, open label, repeat dose, 3-way crossover study in healthy adult subjects. Two marketed formulations of oxybutynin were used in the study: i) Ditropan IR®, which is immediate release (IR) oxybutynin; and ii) Ditropan XL® which is extended release (XL) oxybutynin. The total daily dose given was 20 mg. Solabegron was administered as tablets. […] Each study session was separated by a washout period of at least 5 days. Safety assessments included vital signs, ambulatory blood pressure monitoring (ABPM) physical examinations, clinical laboratory safety tests, 12-lead ECGs, PVR volume, to assess the potential for urinary retention, and adverse events. […] Bladder ultrasound scans to measure PVR volumes were conducted on Day-1 (one day prior to the dosing period) and Day 6 (sixth day of the dosing period) of each study session.

[3] = tested on: muscarinic receptor subtypes M1, M2, M3, M4 and M5; settings: cited from earlier work
[4] = tested on: urinary bladder strips from rats; test: EFS-induced contractions of rat urinary bladder strips (Example 2); format: cell-based; settings: for EC50: EFS-induced contractions, read-out: EC50 for inhibiting bladder contraction
Description: In order to investigate a possible pharmacological synergy on the combination of the muscarinic and the beta receptor pathways, the combination of the muscarinic antagonist oxybutynin and the beta-3 adrenoceptor agonist CL-316,243 (a very selective and potent rodent β3-AR agonist) was tested on EFS (electrical field stimulation)-induced responses in urinary bladder strips from rats.
Longitudinal strips of rat detrusor muscle were suspended in organ bath chambers containing oxygenated Krebs solution (pH 7.4, gassed with 95% O2 and 5% CO2 at 37° C.). Prazosin (1 μM) was added to the Krebs solution in order to block al-adrenoceptors. Bladder responses were measured using isometric transducers and recorded using a data acquisition system. Tissues were allowed to equilibrate under a resting tension of 1.0 g for 60 min. Following the equilibration period, strips were exposed to KCl (80 mM) to measure their viability. Tissues were washed and equilibrated for another 45 min period. Bladder strips were then subjected to EFS using the following parameters: maximal current 800 mA, frequency of 15 Hz, square pulse of 0.1 ms, trains of 4 s every 2 min. After approximately 15 min (when EFS contractions had stabilized), the selective β2-adrenoceptor antagonist ICI-118551 (30 nM) was incubated for 15 min. After stabilization of the contractile response, a concentration response curve was obtained for each bladder strip by adding CL-316,243 or oxybutynin (1 nM to 10 μM) (or corresponding vehicle) in log unit concentration increments.
In a second series of experiments, a single concentration of oxybutynin at 10 nM (determined from the first series of experiments) was added to organ bath chambers followed by various doses of CL-316,243 to provide a concentration-response curve for CL-316,243.

[5] = in the presence of 10 nM oxybutynin
[6] = in the presence of 10 nM solifenacin
[7] = in the presence of 10 nM tolterodine
[8] = in the presence of oxybutynin (10 nM)

| SMILES | IC50 of beta-3 agonist vs vehicle (in words) [1, 5] | Emax of beta-3 agonist vs vehicle (in words) [1, 7] | IC50 of beta-3 agonist vs vehicle (in words) [1, 7] | Emax of beta-3 agonist vs vehicle (in words) [1, 5] | Discrimination between M3 and M1/M4 subtypes (in words) [3] | Selectivity for M3 over the M2/M5 subtypes [3] [fold] | further results |
| --- | --- | --- | --- | --- | --- | --- | --- |
| Nc1nc(CC(=O)Nc2ccc(CCNC[C@H](O)c3ccccc3)cc2)cs1 [mirabegron] | significantly lower | appeared to be increased | significantly lower | – | – | – | IC50 of beta-3 agonist vs vehicle (in words) [1, 6]: significantly lower |
| O=C(O)c1cccc(-c2cccc(NCCNC[C@H](O)c3cccc(Cl)c3)c2)c1 [solabegron, 3′-[(2-{[(2R)-2-(3-chlorophenyl)-2-hydroxyethyl]amino}ethyl)amino]biphenyl-3-carboxylic acid] | significantly lower | significantly increased | significantly lower | significantly increased | – | – | Mean increase from baseline in PVR volume ([2]; healthy human subjects, repeat oral doses for 5 days, Day 6 vs Day-1, solabegron 200 mg BID, oxybutynin IR 5 mg QID, oxybutynin XL 10 mg BID): 4.4 mL; Changes in PVR volume (in words) ([2]; healthy subjects): minimal changes; Emax of beta-3 agonist vs vehicle (in words) [1, 6]: significantly increased |
| O=C(O[C@H]1CN2CCC1CC2)N1CCc2ccccc2[C@@H]1c1ccccc1 [solifenacin] | – | – | – | – | do not distinguish | ~10 | – |
| C[C@H](Cc1ccc2c(c1)OC(C(=O)[O-])(C(=O)[O-])O2)NC[C@H](O)c1cccc(Cl)c1.[Na+].[Na+] [CL-316,243] | significantly decreased | significantly increased | – | significantly increased | – | – | Maximal inhibition of EFS-induced contractions ([4]; CL-316,243 alone): 65%; EC50 ([4]; CL-316,243 alone): 7.2 nM; Shift to the left of concentration-response curve ([4]; in the presence of a minimally effective dose of oxybutynin (10 nM)): ~3.5 fold; Maximal inhibition of EFS-induced contractions [4, 8]: 80%; EC50 [4, 8]: 2.1 nM |
| CCN(CC)CC#CCOC(=O)C(O)(c1ccccc1)C1CCCCC1 (stereo not shown) [oxybutynin, 4-diethylaminobut-2-ynyl 2-cyclohexyl-2-hydroxy-2-phenyl-ethanoate] | – | – | – | – | do not distinguish | ~10 | Effect of oxybutynin alone on EFS-induced responses (in words) ([4]; oxybutynin at a concentration of 10 nM, first series of experiments): minimal contraction |
| Cc1ccc(O)c([C@H](CCN(C(C)C)C(C)C)c2ccccc2)c1 [tolterodine] | – | – | – | – | – | – | Discrimination between the five muscarinic subtypes (in words) [3]: does not discriminate between the five subtypes |
